Experimental data published in article PMC12520456, “Regulating Enzyme Activity via Microaggregates Mediated by Phase Separation” (Advanced Science, 2025).
Non-standard residues stand in square brackets, D forms with d. Residues, ends and D or L forms follow the SMILES beside them.

Key:
Chymotrypsin = Chymotrypsin activity assay (BTEE); type: biochemical; details: Figure 2C
Method: and the product's absorbance at […] was dynamically and real-time monitored using a microplate […]
During the chymotrypsin activity assay, DPMD was incorporated into chymotrypsin. The final concentration of chymotrypsin was set at 10 μg/mL, and the final concentration of DPMD was 5 mg/mL. In the corresponding control group, an equal volume of the buffer solution prepared by the kit was added. Subsequently, the enzyme-peptide mixture was added to the reaction system containing the substrate N-Benzoyl-L-Tyrosine Ethyl Ester (BTEE) at a ratio of 1:100 (where the proportion of the enzyme-peptide mixture solution was 1) for the detection of enzyme activity. The reaction was carried out at 25 ℃, and the product's absorbance at 256 nm was dynamically and real-time monitored using a microplate reader. The experimental result was represented by the enzyme reaction's degree of completion. All the tests were repeated three independent times.
NIH-3T3 cells were obtained from the National Collection of Authenticated Cell Cultures. HUVECs were obtained from Procell. All cells were maintained in DMEM media at 37°C with 5% CO₂. […] Cell viability was evaluated by the CCK-8 assay (Dojindo) at 1-, 3-, 5-, and 7-days post-treatment. […] The absorbance at 450 nm was recorded using a microplate reader […]

Ca-binding assay = details: peptide 0.625-30 mg/mL with 3 μg/mL Ca2+, 20 mM sodium phosphate buffer pH 7.4, 37 °C 30 min; supernatant calcium by kit; four independent repeats; Figure S1C
Text: circular dichroism spectrum and molar ellipticity (kdeg·cm2/mol) on the y-axis.
3.3 Peptide Synthesis and DPMD Preparation
All peptides were synthetized according to the optimized HBTU activation/DIEA in situ neutralization protocol developed by […] on the CS bio 336X automated peptide synthesizer. Briefly, after cleavage and deprotection in a reagent cocktail containing 88% TFA, 5% phenol, 5% H2O and 2% TIPS, crude products were precipitated with cold ether and purified to homogeneity by preparative C18 reversed-phase HPLC. The molecular masses were ascertained by electrospray ionization mass spectrometry (ESI-MS). […]
0.22μm filter to remove residue. The calcium content of the supernatant was measured using the Calcium ion detection kit (Beyotime) according to the recommended method. […]
Peptide and enzyme solutions were prepared at varying concentrations and mixed at a 1:1 volume ratio. Solution turbidity was quantitatively assessed by monitoring absorbance at 405 nm using a BioTek spectrophotometer. For fluorescence-based characterization, peptides were labeled with FITC while enzymes were labeled with Cy5. […] For fluorescence recovery after photobleaching (FRAP) analysis, enzyme-aggregated patches were selectively bleached at 60% laser power using 488/640 nm lasers for 10 s, followed by time-lapse imaging at 1-min intervals. […]

Proteinase K = target: T1, Proteinase K (Parengyodontium album, UniProt P06873); assay: Fluorescence anisotropy binding, non-target protease; details: Figure S3A
T1 construct: purchased Sigma-Aldrich
Text: Figure S3. The fluorescent anisotropy evaluation of binding affinity between DPMD peptide with Proteinase K (A), and inhibitor-saturated and blocked trypsin (B) and chymotrypsin (C). Trypsin/Chymotrypsin was saturated and blocked by aprotinin (Yeasen Biotechnology, trypsin/chymotrypsin inhibitor). (D-H) The fluorescent anisotropy evaluation of binding affinity between DPMD peptide with elastase (D), lipase (E), amylase(F), carboxypeptidase (G), albumin (H) and immunoglobulins (I).
Figure S4. The DLS analysis of trypsin, chymotrypsin and DPMD with/without trypsin or chymotrypsin. […]
data acquisition. A series of enzyme solutions with varying concentrations (maximum concentrations of trypsin and chymotrypsin were 20 μM each) were prepared in Tris-HCl buffer (10 mM Tris, 150 mM NaCl, 1 mM EDTA, pH 7.0). These enzyme solutions were added to the 96-well plate and incubated with 100 nM DPMD at room temperature for 30 minutes, with triplicates.
Fluorescence polarization was measured with an excitation wavelength of 470 nm and an emission […]
Plot the fluorescence intensity versus concentration data as scatter plots using Origin software.
For data analysis, fit the concentration-fluorescence polarization data with the logistic function in Origin 2021 software to obtain the fitting curve and determine the half-maximal effective concentration (EC50). […]

T1 sequence (P06873 106-384): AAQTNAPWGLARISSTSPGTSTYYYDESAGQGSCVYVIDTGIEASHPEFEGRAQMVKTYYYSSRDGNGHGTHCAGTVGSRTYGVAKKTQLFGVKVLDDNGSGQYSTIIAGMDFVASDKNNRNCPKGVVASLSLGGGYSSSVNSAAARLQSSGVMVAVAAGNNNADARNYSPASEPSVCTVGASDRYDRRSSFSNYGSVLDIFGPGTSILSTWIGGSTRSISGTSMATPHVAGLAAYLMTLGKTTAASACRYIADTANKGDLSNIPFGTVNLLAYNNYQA

CC[C@@H](C)[C@@H](NC(=O)[C@@H](CCC(N)=O)NC(=O)[C@H](NC(=O)[C@@H](Cc1ccc(O)cc1)NC(=O)CNC(=O)[C@@H](CC(C)C)NC(=O)[C@H](NC(=O)[C@@H](CO)NC(=O)CNC(=O)[C@@H](C)NC(=O)[C@@H](CC(=O)O)NC(=O)[C@@H](C)NC(=O)[C@@H](CCCNC(=N)N)NC(=O)[C@@H](C)NC(=O)[C@@H](CC(=O)O)NC(=O)[C@@H](C)NC(=O)[C@@H](CCCNC(=N)N)NC(=O)[C@@H](C)NC(=O)[C@@H](CC(=O)O)NC(=O)[C@@H](C)NC(=O)[C@@H](CCCNC(=N)N)NC(=O)[C@@H](C)NC(=O)[C@@H](CC(=O)O)NC(=O)[C@@H](C)NC(=O)[C@H](N)CCCNC(=N)N)C(C)C)[C@H](C)CC)C(=O)N[C@H](CCCNC(=N)N)C(=O)O [DPMD, Ac‐(D‐RADA)4‐CONH2] (H-[dR][dA][dD][dA][dR][dA][dD][dA][dR][dA][dD][dA][dR][dA][dD][dA]G[dS][dV][dL]G[dY][dI][dQ][dI][dR]-OH; N-terminus and C-terminus assumed)
suppression of enzymatic activity of Chymotrypsin (Chymotrypsin): almost complete extent
Ca^2+ binding capacity (Ca-binding assay): clear binding affinity
binding to Proteinase K (fluorescence anisotropy) (Proteinase K): no appreciable binding
